Source: publication PMC2192098 (The Journal of Experimental Medicine, 1995)

Key:
[1] = tested on: HepG2 cells; alpha 1-antichymotrypsin synthesis; assay: alpha1-antichymotrypsin; assay type: cell-based, human; conditions: HepG2, 6 h, 37°C
[2] = tested on: HepG2 cells; alpha 1-antichymotrypsin synthesis; conditions: lower doses of IL-6; cited from earlier work
HepG2 cells = conditions: cell lines such as HepG2; cited from earlier work
[3] = tested on: C5a and FMLP receptor-activated signal transduction pathways; conditions: background statement, no reference given; cited from earlier work
[4] = tested on: HepG2 cells; complement C3 synthesis; assay: C3 synthesis in HepG2 cells; assay type: cell-based, human; conditions: for time at which increase in C3 synthesis becomes evident: C5a or FMLP 10 nM, HepG2, 37°C, Fig. 6; for effect on C3 synthesis: HepG2, 6 h, 37°C, 1 and 10 nM, Fig. 7
[5] = tested on: HepG2 cells; albumin synthesis; assay: Albumin synthesis in HepG2 cells; assay type: cell-based, human; conditions: for time at which decrease in albumin synthesis becomes evident: C5a or FMLP 10 nM, Fig. 6
[6] = tested on: HepG2 cells; complement Bf synthesis; assay: Complement Bf synthesis in HepG2 cells; assay type: cell-based, human; conditions: HepG2, 6 h, 37°C; 1 and 10 nM; Fig. 7
[7] = tested on: HepG2 cells; transferrin synthesis; assay: Transferrin synthesis in HepG2 cells; assay type: cell-based, human; conditions: HepG2, 6 h, 37°C; 1 and 10 nM; Fig. 7
[8] = tested on: HepG2 cells; alpha1-AT synthesis; assay: alpha1-antitrypsin; assay type: cell-based, human; conditions: HepG2, 6 h, 37°C; 1 and 10 nM; Fig. 7
[9] = tested on: HepG2 cells; C5 synthesis; assay: C5 synthesis in HepG2 cells; assay type: cell-based, human; conditions: HepG2, 6 h, 37°C; 1 and 10 nM; Fig. 7
[10] = tested on: HepG2 cells; fibrinogen and C4 synthesis; assay: Fibrinogen and C4 synthesis in HepG2 cells; assay type: cell-based, human; conditions: data not shown
[11] = tested on: HepG2 cells; serum amyloid A or C-reactive protein synthesis; assay: Serum amyloid A and C-reactive protein synthesis in HepG2 cells; assay type: cell-based, human; conditions: data not shown
[12] = tested on: HepG2 cells; acute phase protein synthesis; assay: Synthesis of acute phase proteins in HepG2 cells; assay type: cell-based, human; conditions: for effect on C3 and albumin synthesis at higher concentrations: higher concentrations of chemotactic peptides, data not shown
neutrophils = conditions: cited from earlier work
FMLPR in HepG2 cells = molecular target: T1, FMLPR in HepG2 cells (Homo sapiens, UniProt P21462); assay: Binding of radioiodinated FMLP analogue to HepG2 cells
T1 sequence (P21462 1-350): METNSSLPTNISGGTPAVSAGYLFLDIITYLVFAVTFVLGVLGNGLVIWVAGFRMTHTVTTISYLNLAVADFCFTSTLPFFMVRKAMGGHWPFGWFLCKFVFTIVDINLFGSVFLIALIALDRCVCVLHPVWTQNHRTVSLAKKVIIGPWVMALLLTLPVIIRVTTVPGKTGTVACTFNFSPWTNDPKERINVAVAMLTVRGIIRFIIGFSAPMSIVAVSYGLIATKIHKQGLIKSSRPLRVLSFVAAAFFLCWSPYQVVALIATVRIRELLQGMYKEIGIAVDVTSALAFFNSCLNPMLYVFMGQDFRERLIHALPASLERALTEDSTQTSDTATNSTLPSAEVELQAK

[13] = tested on: vascular tissue, smooth muscle, mast cells; conditions: cited from earlier work
human endothelial cells = conditions: cited from earlier work
C5aR in HepG2 cells = conditions: cited from earlier work
[14] = HepG2, 10 h, IL-1β 10 ng/ml + IL-6 10 ng/ml as positive control, Fig. 5
[15] = HepG2, 37°C, 10 h, serum-free, C5a or FMLP 1 and 10 nM, Fig. 5
[16] = HepG2, 6 h, 37°C, 1 and 10 nM, Fig. 7

## IL-6: prototype acute phase cytokine IL-6
[1]; Fig. 9 right
  concentration of maximal effect on alpha1-ACT synthesis: 0.2 /xg/ml
[1]; IL-6, several concentrations from 0.2 μg/ml, Fig. 9 right
  effect on alpha1-ACT synthesis: increase
[2]
  effect on alpha1-ACT synthesis at lower doses: con- centration dependent at lower doses
HepG2 cells
  changes in expression of acute phase genes: changes in expression of at least several if not many acute phase genes

## pertussis toxin
[3]
  inhibition of C5a/FMLP receptor signal transduction: is inhibited by pertussis toxin

## leukemia inhibitory factor: cytokine
HepG2 cells
  changes in expression of acute phase genes: changes in expression of at least several if not many acute phase genes

## formyl-methionyl-leucyl-phenylalanine [FMLP, reference compound]
[4]
  time at which increase in C3 synthesis becomes evident: 6 h
  effect on C3 synthesis: increases
[4]; [14]
  magnitude of effect on C3 synthesis vs combined effect of IL-1β and IL-6: less than but comparable in magnitude
[5]; HepG2, 37°C
  time at which decrease in albumin synthesis becomes evident: 6 h
[5]; [15]
  effect on albumin synthesis: concentration-dependent decreases in synthesis of albumin
[5]; [16]
  effect on albumin synthesis: decreases
[5]; HepG2, 10 h, Fig. 5
  concentration at which effect on albumin biosynthesis was first evident: 1 nM
[5]; [14]
  magnitude of effect on albumin synthesis vs combination of IL-1β and IL-6: less than but comparable
[6]
  effect on complement Bf synthesis: increases
[1]; FMLP above 20 nM, Fig. 9 left
  alpha1-ACT synthesis at higher (supersaturating) concentrations: returns to control levels
[1]; 1 and 10 nM, Fig. 7
  effect on alpha1-ACT synthesis: increases
[7]
  effect on transferrin synthesis: decreases
[8]
  effect on alpha1-AT synthesis: no effect
[9]
  effect on C5 synthesis: no effect
[10]
  effect on fibrinogen and C4 synthesis: minimally and inconsistently increased
[11]
  induction of serum amyloid A or C-reactive protein synthesis: no evidence for induc- tion
[12]; abstract
  lowest concentration with evident effect on synthesis of acute phase proteins: 1 nM
[12]
  effect on C3 and albumin synthesis at higher concentrations: dissipation of the effect
neutrophils
  effect on neutrophil chemotaxis at supersaturating concentrations: abrogated at supersaturating concentra- tions
  neutrophil program activated: directed cell migration, release of active oxy- gen intermediates, and release of proteolytic and phlogistic granular contents

## IL-I~: cytokine (interleukin-1 beta; scan error)
HepG2 cells
  changes in expression of acute phase genes: changes in expression of at least several if not many acute phase genes

## formylNLe-Leu-Phe-NLe-Tyr-Lys [radioiodinated FMLP analogue]
FMLPR in HepG2 cells; HepG2, 2 h at 4°C, Fig. 3A
  binding of radioiodinated FMLP analogue to HepG2 cells: specific and saturable binding
FMLPR in HepG2 cells; Scatchard plot, HepG2, 2 h at 4°C
  plasma membrane receptors per cell (R): ~6,000 plasma membrane receptors per cell
FMLPR in HepG2 cells; Scatchard plot, HepG2 monolayers, 2 h at 4°C, DMEM, 10 mM Hepes, pH 7.2, 1 mg/ml BSA, 0.05% Tween 80, nonspecific: 200-fold (Fig. 3: 250-fold) molar excess unlabeled FMLP, gamma counting
  Kd: ~2.47 nM

B1: IL-11: cytokine (protein, UniProt P20809 22-199, looked up)
Interleukin-11: PGPPPGPPRVSPDPRAELDSTVLLTRSLLADTRQLAAQLRDKFPADGDHNLDSLPTLAMSAGALGALQLPGVLTRLRADLLSYLRHVQWLRRAGGSSLKTLEPELGTLQARLDRLLRRLQLLMSRLALPQPPPDPPAPPLAPPSSAWGGIRAAHAILGGLHLTLDWAVRGLLLLKTRL
HepG2 cells
  changes in expression of acute phase genes: changes in expression of at least several if not many acute phase genes

B2: C5a: 11,200-D cationic glycopeptide from the first 74 residues of the C5 alpha chain; recombinant human C5a (Sigma) used (protein, UniProt P01031 678-751, looked up)
C5a anaphylatoxin: TLQKKIEEIAAKYKHSVVKKCCYDGACVNNDETCEQRAARISLGPRCIKAFTECCVVASQLRANISHKDMQLGR
modifications: C5a anaphylatoxin
[4]
  time at which increase in C3 synthesis becomes evident: 6 h
  effect on C3 synthesis: increases
[5]; HepG2, 37°C
  time at which decrease in albumin synthesis becomes evident: 6 h
[5]; [15]
  effect on albumin synthesis: concentration-dependent decreases in synthesis of albumin
[5]; [16]
  effect on albumin synthesis: decreases
[6]
  effect on complement Bf synthesis: increases
[1]; 1 and 10 nM, Fig. 7
  effect on alpha1-ACT synthesis: increases
[7]
  effect on transferrin synthesis: decreases
[8]
  effect on alpha1-AT synthesis: no effect
[9]
  effect on C5 synthesis: no effect
[10]
  effect on fibrinogen and C4 synthesis: minimally and inconsistently increased
[11]
  induction of serum amyloid A or C-reactive protein synthesis: no evidence for induc- tion
[12]
  effect on C3 and albumin synthesis at higher concentrations: dissipation of the effect
neutrophils
  effect on neutrophil chemotaxis at supersaturating concentrations: abrogated at supersaturating concentra- tions
  neutrophil activities mediated: chemotactic ac- tivity, phagocytic activity, release of active oxygen inter- mediates, release of granular enzymes, and increase in adhesion/aggregationproperties in neutrophils
[13]
  histamine release from mast cells: releaseofhistamine from mast cells
  smooth muscle contraction: smooth muscle contraction
  vascular permeability: increasedvascularpermeability
  vasodilatation: vasodilatation
Human endothelial cells
  binding to human endothelial cells: binds to human endothelial cells
C5aR in HepG2 cells
  inhibition of binding of 125I-C5a to HepG2 cells: inhibit binding

B3: IL-lc~: cytokine (interleukin-1 alpha; scan error) (protein, UniProt P01583 113-271, looked up)
Interleukin-1 alpha: SAPFSFLSNVKYNFMRIIKYEFILNDALNQSIIRANDQYLTAAALHNLDEAVKFDMGAYKSSKDDAKITVILRISKTQLYVTAQDEDQPVLLKEMPEIPKTITGSETNLLFFWETHGTKNYFTSVAHPNLFIATKQDYWVCLAGGPPSITDFQILENQA
HepG2 cells
  changes in expression of acute phase genes: changes in expression of at least several if not many acute phase genes

B4: oncostain M: cytokine (protein, UniProt P13725 26-221, looked up)
Oncostatin-M: AAIGSCSKEYRVLLGQLQKQTDLMQDTSRLLDPYIRIQGLDVPKLREHCRERPGAFPSEETLRGLGRRGFLQTLNATLGCVLHRLADLEQRLPKAQDLERSGLNIEDLEKLQMARPNILGLRNNIYCMAQLLDNSDTAEPTKAGRGASQPPTPTPASDAFQRKLEGCRFLHGYHRFMHSVGRVFSKWGESPNRSRR
HepG2 cells
  changes in expression of acute phase genes: changes in expression of at least several if not many acute phase genes
